Source: ChEMBL document CHEMBL1156904, “Part II: piperazinyl-glutamate-pyridines as potent orally bioavailable P2Y12 antagonists for inhibition of platelet aggregation” (Bioorg Med Chem Lett, 2010)

How the values were obtained:
[1] = Antiplatelet activity in human platelet rich plasma assessed as inhibition of ADP-induced platelet aggregation; assay type: functional
P2Y purinoceptor 12 = P2Y purinoceptor 12 (Homo sapiens, UniProt Q9H244); assay: Inhibition of human P2Y12 receptor expressed in CHO cells
P2Y purinoceptor 12, sequence (Q9H244 whole entry): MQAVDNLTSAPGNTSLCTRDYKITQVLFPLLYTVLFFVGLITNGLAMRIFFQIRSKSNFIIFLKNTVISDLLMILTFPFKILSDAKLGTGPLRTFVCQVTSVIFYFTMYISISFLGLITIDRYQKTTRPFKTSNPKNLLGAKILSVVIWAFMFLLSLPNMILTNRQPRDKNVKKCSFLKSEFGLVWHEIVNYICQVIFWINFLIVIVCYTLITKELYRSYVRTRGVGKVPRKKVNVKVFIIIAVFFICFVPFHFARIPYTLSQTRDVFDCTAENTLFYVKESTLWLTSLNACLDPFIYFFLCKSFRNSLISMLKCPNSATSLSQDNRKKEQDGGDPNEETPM

[2] = Antiplatelet activity in human platelet rich plasma assessed as inhibition of ADP-induced platelet aggregation relative to AZD-6140; assay type: functional
[3] = Metabolic stability in rat microsomes; assay type: ADME, Microsome
[4] = Metabolic stability in human microsomes; assay type: ADME, Microsome

Compound: CCCCCCOC(=O)N1CCN(C(=O)[C@H](CCC(=O)O)NC(=O)c2cc(N3CCC(C(=O)N(CC)CC)CC3)cc(-c3ccccc3)n2)CC1
- IC50 [1]: 820 nM
- Ki (P2Y purinoceptor 12): 4.8 nM
- fold change (FC) [2]: 1.7
- Stability [3]: Stable
- Stability [4]: Stable

Compound: CCCCOC(=O)N1CCN(C(=O)[C@H](CCC(=O)O)NC(=O)c2cc(N3CCC(CN4CCCC4)CC3)cc(-c3ccccc3)n2)CC1
- IC50 [1]: 800 nM
- Ki (P2Y purinoceptor 12): 1.5 nM
- fold change (FC) [2]: 1
- Stability [3]: Stable
- Stability [4]: Stable

Compound: CCCCCOC(=O)N1CCN(C(=O)[C@H](CCC(=O)O)NC(=O)c2cc(N3CCC(CCOC)CC3)cc(-c3ccccc3)n2)CC1
- IC50 [1]: 2700 nM
- Ki (P2Y purinoceptor 12): 11 nM
- fold change (FC) [2]: 3.5
- Stability [3]: Stable
- Stability [4]: Stable

Compound: CCCCCOC(=O)N1CCN(C(=O)[C@H](CCC(=O)O)NC(=O)c2cc(N3CC[C@H](C(=O)N(C)C)C3)cc(-c3ccccc3)n2)CC1
- IC50 [1]: 3000 nM
- Ki (P2Y purinoceptor 12): 26 nM
- fold change (FC) [2]: 4.1
- Stability [3]: Stable
- Stability [4]: Stable

Compound: CCCOC(=O)N1CCN(C(=O)[C@H](CCC(=O)O)NC(=O)c2cc(N3CCC(C(=O)N(CC)CC)CC3)cc(-c3ccccc3)n2)CC1
- IC50 [1]: 2000 nM
- Ki (P2Y purinoceptor 12): 12 nM
- fold change (FC) [2]: 2.3
- Stability [3]: Stable
- Stability [4]: Stable

Compound: CCCCCOC(=O)N1CCN(C(=O)[C@H](CCC(=O)O)NC(=O)c2cc(N3CCN(CCCN(C)C)CC3)cc(-c3ccccc3)n2)CC1
- IC50 [1]: 520 nM
- Ki (P2Y purinoceptor 12): 8.4 nM
- fold change (FC) [2]: 0.72
- Stability [3]: Stable
- Stability [4]: Stable

Compound: CCCCCOC(=O)N1CCN(C(=O)C(CCC(=O)O)NC(=O)c2cc(N3CCC(O)C3)cc(-c3ccccc3)n2)CC1 (mixture of isomers)
- IC50 [1]: 7100 nM
- Ki (P2Y purinoceptor 12): 13 nM
- fold change (FC) [2]: 3.9
- Stability [3]: Stable
- Stability [4]: Stable

Compound: CCCCCOC(=O)N1CCN(C(=O)[C@H](CCC(=O)O)NC(=O)c2cc(N3CC[C@@H](C(=O)N(CC)CC)C3)cc(-c3ccccc3)n2)CC1
- IC50 [1]: 6600 nM
- Ki (P2Y purinoceptor 12): 2.6 nM
- fold change (FC) [2]: 5
- Stability [3]: Stable
- Stability [4]: Stable

Compound: CCCCOC(=O)N1CCN(C(=O)[C@H](CCC(=O)O)NC(=O)c2cc(N3CCC(C(=O)N(C)C)CC3)cc(-c3ccccc3)n2)CC1
- IC50 [1]: 630 nM
- Ki (P2Y purinoceptor 12): 2.6 nM
- fold change (FC) [2]: 0.53
- Stability [3]: Stable
- Stability [4]: Stable

Compound: CCCCCOC(=O)N1CCN(C(=O)[C@H](CCC(=O)O)NC(=O)c2cc(N3CCC(CN(CC)CC)CC3)cc(-c3ccccc3)n2)CC1
- IC50 [1]: 2200 nM
- Ki (P2Y purinoceptor 12): 4 nM
- fold change (FC) [2]: 2.7
- Stability [3]: Stable
- Stability [4]: Stable

Compound: CCCCCOC(=O)N1CCN(C(=O)[C@H](CCC(=O)O)NC(=O)c2cc(N3CCN(CCOCCC)CC3)cc(-c3ccccc3)n2)CC1
- IC50 [1]: 1500 nM
- Ki (P2Y purinoceptor 12): 6.3 nM
- fold change (FC) [2]: 3.1
- Stability [3]: Stable
- Stability [4]: Stable

Compound: CCCCCOC(=O)N1CCN(C(=O)[C@H](CCC(=O)O)NC(=O)c2cc(N3CCC(CN(C)C)CC3)cc(-c3ccccc3)n2)CC1
- IC50 [1]: 1000 nM
- Ki (P2Y purinoceptor 12): 1.9 nM
- fold change (FC) [2]: 1.3
- Stability [3]: Stable
- Stability [4]: Stable

Compound: CCCCCOC(=O)N1CCN(C(=O)[C@H](CCC(=O)O)NC(=O)c2cc(N3CCN(C(=O)N(CC)CC)CC3)cc(-c3ccccc3)n2)CC1
- IC50 [1]: 3200 nM
- Ki (P2Y purinoceptor 12): 12 nM
- fold change (FC) [2]: 4.6
- Stability [3]: Stable
- Stability [4]: Stable

Compound: CCCCOC(=O)N1CCN(C(=O)[C@H](CCC(=O)O)NC(=O)c2cc(N3CCC(CNCC)CC3)cc(-c3ccccc3)n2)CC1
- IC50 [1]: 1300 nM
- Ki (P2Y purinoceptor 12): 3.8 nM
- fold change (FC) [2]: 1.4
- Stability [3]: Stable
- Stability [4]: Stable

Compound: CCCCCOC(=O)N1CCN(C(=O)[C@H](CCC(=O)O)NC(=O)c2cc(N3CCN(CCO)CC3)cc(-c3ccccc3)n2)CC1
- IC50 [1]: 1800 nM
- Ki (P2Y purinoceptor 12): 13 nM
- fold change (FC) [2]: 1.1
- Stability [3]: Stable
- Stability [4]: Stable

Compound: CCCCCOC(=O)N1CCN(C(=O)[C@H](CCC(=O)O)NC(=O)c2cc(N3CCCC(CN4CCCC4=O)C3)cc(-c3ccccc3)n2)CC1 (stereo not given in full)
- IC50 [1]: 2600 nM
- Ki (P2Y purinoceptor 12): 10 nM
- fold change (FC) [2]: 3.8
- Stability [3]: Stable
- Stability [4]: Stable

Compound: CCCCCOC(=O)N1CCN(C(=O)[C@H](CCC(=O)O)NC(=O)c2cc(N3CCNCC3)cc(-c3ccccc3)n2)CC1
- IC50 [1]: 1900 nM
- Ki (P2Y purinoceptor 12): 6.5 nM
- fold change (FC) [2]: 2.3
- Stability [3]: Stable
- Stability [4]: Stable

Compound: CCCCCOC(=O)N1CCN(C(=O)[C@H](CCC(=O)O)NC(=O)c2cc(N3CC[C@H](C(=O)N4CCCC4)C3)cc(-c3ccccc3)n2)CC1
- IC50 [1]: 2600 nM
- Ki (P2Y purinoceptor 12): 1.7 nM
- fold change (FC) [2]: 2.8
- Stability [3]: Stable
- Stability [4]: Stable

Compound: CCCCCOC(=O)N1CCN(C(=O)[C@H](CCC(=O)O)NC(=O)c2cc(N3CCN(CCS(C)(=O)=O)CC3)cc(-c3ccccc3)n2)CC1
- IC50 [1]: 680 nM
- Ki (P2Y purinoceptor 12): 8.9 nM
- fold change (FC) [2]: 0.81
- Stability [3]: Stable
- Stability [4]: Stable

Compound: CCCCCOC(=O)N1CCN(C(=O)[C@H](CCC(=O)O)NC(=O)c2cc(N3CCCC(C(N)=O)C3)cc(-c3ccccc3)n2)CC1 (stereo not given in full)
- IC50 [1]: 7800 nM
- Ki (P2Y purinoceptor 12): 17 nM
- fold change (FC) [2]: 7.3
- Stability [3]: Stable
- Stability [4]: Stable

Compound: CCCCCOC(=O)N1CCN(C(=O)[C@H](CCC(=O)O)NC(=O)c2cc(N3CCCC(N4CCCC4)C3)cc(-c3ccccc3)n2)CC1 (stereo not given in full)
- IC50 [1]: 3300 nM
- Ki (P2Y purinoceptor 12): 11 nM
- fold change (FC) [2]: 3.3
- Stability [3]: Stable
- Stability [4]: Stable

Compound: CCCCCOC(=O)N1CCN(C(=O)C(CCC(=O)O)NC(=O)c2cc(N3CCC(COC)C3)cc(-c3ccccc3)n2)CC1 (mixture of isomers)
- IC50 [1]: 7300 nM
- Ki (P2Y purinoceptor 12): 31 nM
- fold change (FC) [2]: 10
- Stability [3]: Stable
- Stability [4]: Stable

Compound: CCCCCOC(=O)N1CCN(C(=O)[C@H](CCC(=O)O)NC(=O)c2cc(N3CC[C@@H](C(=O)N(C)C)C3)cc(-c3ccccc3)n2)CC1
- IC50 [1]: 3600 nM
- Ki (P2Y purinoceptor 12): 24 nM
- fold change (FC) [2]: 3.8
- Stability [3]: Stable
- Stability [4]: Stable

Compound: CCCCCOC(=O)N1CCN(C(=O)[C@H](CCC(=O)O)NC(=O)c2cc(N3CC[C@H](C(=O)N(CC)CC)C3)cc(-c3ccccc3)n2)CC1
- IC50 [1]: 4800 nM
- Ki (P2Y purinoceptor 12): 1.7 nM
- fold change (FC) [2]: 4.6
- Stability [3]: Stable
- Stability [4]: Stable

Compound: CCCCCOC(=O)N1CCN(C(=O)[C@H](CCC(=O)O)NC(=O)c2cc(N3CCC(CNC)CC3)cc(-c3ccccc3)n2)CC1
- IC50 [1]: 710 nM
- Ki (P2Y purinoceptor 12): 1.5 nM
- fold change (FC) [2]: 0.99
- Stability [3]: Stable
- Stability [4]: Stable

Compound: CCCCCOC(=O)N1CCN(C(=O)[C@H](CCC(=O)O)NC(=O)c2cc(N3CCC(CN4CCCC4)CC3)cc(-c3ccccc3)n2)CC1
- IC50 [1]: 740 nM
- Ki (P2Y purinoceptor 12): 1.1 nM
- fold change (FC) [2]: 0.93
- Stability [3]: Stable
- Stability [4]: Stable
